Columns and labels:
[1] = system: APP/PS1 mice; assay: Novel object location task after i.c.v. infusion by osmotic minipump; format: in vivo, mouse; settings: VO-OHpic infused 3-4 weeks into brain ventricles
Method: APP/PS1 and wild-type mice were anesthetized with isofluorane, and i.c.v. delivery cannulas (brain alzet kit III) were implanted with a stereotaxic frame (KOPF Instruments) at the following coordinates according to the bregma: AP, −0.5 mm; ML, 1 mm; and DV, −2.2 mm. Osmotic minipumps (Alzet) were filled with artificial cerebrospinal fluid (aCSF) with or without PTEN inhibitor VO-OHpic (2.5 μM) and equilibrated in 0.9% NaCl at 37° C. for 48 hours. They were attached to the i.c.v. cannula tubing and subcutaneously implanted at the back. After 21 days, behavioral testing was started as described herein. One month after implantation, mice were sacrificed and the brains were sliced stained with Nissl to verify the location of the cannula. Animal manipulation and data analysis was carried out blind with respect to genotype and treatment.
Novel-Object Location. This assay was chosen because it is not intrinsically stressful. This factor, in mice, crucially affects cognitive performance in other spatial learning paradigms (e.g., Morris water maze). The memory tests were composed of three phases—“habituation”, “sample” and “choice” trials. Mice were first habituated individually to an empty open-field box (35×35×15 high cm) for 30 minutes. A sample trial (object exposure) consisted of placing a mouse into the test box which contained two identical objects. […] A recognition index was calculated by dividing the total time spent exploring the displaced object by the total time spent exploring both objects during the test session. […]
It was posited that if early Aβ-induced cognitive impairment results from a general synaptic bias toward LTD events (Selkoe (2002) Science 298:789-791), dampening this form of synaptic plasticity might prevent cognitive decay. Therefore, it was determined whether in vivo inhibition of PTEN, a lipid phosphatase that is involved in LTD (Jurado, et al. (2010) EMBO J. 29:2827-2840), would rescue cognitive deficits in APP/PS1 mice. […]

[2] = system: hippocampal CA3 and CA1 cells from acute slices; assay: fEPSP input-output curve (basal synaptic transmission) in acute hippocampal slices exposed to protofibrillar Aβ42; format: cell-based, mice
Method: Mice were anesthetized with sodium pentothal (20 mg/kg ip) and decapitated. The brain was rapidly removed to ice-cold, oxygenated, dissection solution. Coronal slices (300 μm) were made with a vibratome (LEICA VT1200S) and slices were moved to a recovery chamber containing aCSF at room temperature for at least 1.5 hour before recording.
A concentric bipolar platinum-iridium stimulation electrode and a low-resistance glass recording microelectrode filled with aCSF (3-4 MΩ resistance) were placed in CA1 stratum radiatum to record the extracellular field excitatory postsynaptic potentials (fEPSPs). For each slice, an input-output curve was recorded to compare basal synaptic transmission at different conditions. This curve was also used to set the baseline fEPSP at ≈30% (for LTP experiments) or ≈50% (for LTD experiments) of maximal slope. Baseline stimulation was delivered every 15 seconds (0.01 ms duration pulses) for at least 20 minutes before beginning the experiment to ensure stability of the response. LTP was induced by using θ-burst stimulation (4 pulses at 100 Hz, with the bursts repeated at 5 Hz and each tetanus including three 10-burst trains separated by 15 seconds). LTD was induced using 900 pulses at 1 Hz. Responses were recorded for 1 hour after induction of LTP or LTD.
Dissection solution (employed for slicing) composition: 10 mM D-glucose, 4 mM KCl, 26 mM NaHCO3, 233.7 mM sucrose, 5 mM MgCl2, 1:1000 Phenol Red. Artificial CSF (employed for recovery and recording) composition: 119 mM NaCl, 2.5 mM KCl, 1 mM NaH2PO4, 11 mM glucose, 1.2 mM MgCl2, 2.5 mM CaCl2. Osmolarity was adjusted to […].
For the first approach, protofibrillar Aβ was prepared by promoting aggregation under high-salt conditions (258 μM Aβ42, room temperature incubation (Jan, et al. (2010) Nat. Protoc. 5:1186-1209). The kinetics of Aβ42 aggregation were followed by thioflavin T fluorescence and SDS-PAGE western blot analysis with the N-terminal anti-Aβ antibody 6E10. Also, the heterogeneous nature of these Aβ42 assemblies was evidenced by electron microscopy. Synaptic function was assessed by electrophysiological recordings of field excitatory postsynaptic potential (fEPSPs) between hippocampal CA3 and CA1 cells from acute slices prepared from 5-month-old mice. The results indicated a ≈60% decrease in the magnitude of synaptic transmission (input-output curve) when slices were incubated for 2 hours in aCSF containing pathogenic protofibrillar Aβ42 species (1 μM). This decrease in the basal synaptic transmission was prevented when Aβ was added to slices that were preincubated with the PTEN inhibitor (50 nM VO-OHpic) for 1 hour (VO-OHpic and Aβ were also present in the perfusion solution during electrophysiological recordings). VO-OHpic alone had no effect on basal synaptic transmission. […] The potency and specificity of this inhibitor have been documented previously (Rosivatz, et al. (2006) ACS Chem. Biol. 1:780-790).
The effect of these peptides on Aβ-treated neurons was subsequently tested.

Structure (SMILES): O=C(O)c1ncccc1O.O=C(O)c1ncccc1O.[O]=[V][O-] [VO-OHpic]
- performance in novel object location task (recognition index) ([1]; APP/PS1 mice, P=0.02 vs vehicle-infused APP/PS1, recognition index similar to wild-type): significant improvement
- performance in novel object location task (recognition index) ([1]; wild-type mice): did not affect the performance
- Aβ42-induced decrease in basal synaptic transmission ([2]; 50 nM VO-OHpic preincubated 1 hour, then 1 μM protofibrillar Aβ42 for 2 hours): prevented
- basal synaptic transmission, inhibitor alone ([2]; VO-OHpic alone, no Aβ): no effect

Reference: US20170165317A1, “METHOD FOR MITIGATING OR ALLEVIATING SYNAPTIC AND COGNITIVE DEFICITS” (Trustees of Dartmouth College, priority 2013, published 2017)
